# Data from US20050136043A1, “TGFbeta signaling inhibitors” (Ludwig Institute for Cancer Research, priority 2003, published 2005).
# Where two headings read alike, the source gives them in different places.
# Assays:
# GST-TβR-I [1] = target: T1, GST-TβR-I (Homo sapiens, UniProt P36897, T204D); test: In vitro kinase assay: phosphorylation of GST-Smad3deltaMH1 by GST-TβR-I; assay type: biochemical
# T1 construct: the complete cytoplasmic part (amino acid residues 148-503) of constitutively active TβR-I (T204D) FLAG-tagged at the C-terminus; made in house; host or cells: E. coli
# T1 sequence (P36897 148-503 T204D): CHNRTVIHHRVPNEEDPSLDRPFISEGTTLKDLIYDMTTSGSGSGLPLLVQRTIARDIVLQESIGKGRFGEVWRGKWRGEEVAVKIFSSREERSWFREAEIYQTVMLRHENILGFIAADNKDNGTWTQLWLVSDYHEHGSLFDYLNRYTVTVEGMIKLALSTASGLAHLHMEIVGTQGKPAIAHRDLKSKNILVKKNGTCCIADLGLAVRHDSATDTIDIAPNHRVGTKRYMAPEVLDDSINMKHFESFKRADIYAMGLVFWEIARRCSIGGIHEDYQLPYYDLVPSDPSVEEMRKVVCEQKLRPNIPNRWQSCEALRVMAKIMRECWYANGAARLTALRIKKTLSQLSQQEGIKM
# [2] = tested on: phosphorylation of endogenous Smad2 by TβR-I in Mv1Lu cells; test: TGFβ1-dependent phosphorylation of endogenous Smad2 in Mv1Lu cells (pS2 immunoblot); assay type: cell-based; conditions: for Effect of low molecular weight inhibitors on TGFβ1-dependent phosphorylation of Smad2: Mv1Lu cells, TGFβ1 10 ng/ml 30 min, FIG. 3A
# p38 MAP = p38 MAP (Homo sapiens, UniProt Q16539); conditions: Calbiochem product data sheets; read-out: IC50 p38 MAP in vitro; cited from earlier work
# GST-TβR-I [3] = target: T1, GST-TβR-I; test: GST-TβR-I autophosphorylation assay; assay type: biochemical; conditions: peptides at 1 and 10 μM, FIG. 4A
# Protocol: In vitro kinase assay: GST-TβRI activity was assayed in vitro using the known TβR-I substrates GST-Smad3deltaMH1, GST-Smad2; GST-Smad1 was used as a control for specificity. The reaction mixture (20 μl) contained 20 mM HEPES (pH 7.4), 10 mM MgCl2, 2 mM MnCl2, 1 mM dithiothreitol (DTT), 5 μM ATP plus 0.5 μCi [γ^32P]ATP (Redivue, Amersham Biosciences), and inhibitors at different concentrations. The reaction was initiated by an addition of 0.02 μg purified GST-TβRI, followed by incubation at 22° C. for 20 min. Reaction was terminated by addition of 5 μl of 5× SDS-sample buffer. Samples were subjected to SDS-PAGE followed by analysis in a FujiX2000 phosphorimager. For all in vitro enzyme assays, the percent inhibition was calculated as 100×(1-Ai/A0), where Ai and A0 are levels of GST-Smad phosphorylation in the presence and absence of inhibitors, respectively. […] Phosphorylated GST-Smad3deltaMH1 and autophosphorylated GST-TβRI were analyzed by tryptic phosphopeptide mapping, as described previously.
# A GST-TβR-I autophosphorylation assay was performed in the absence or presence of antp-Sm2S (SEQ ID NO:3), antp-Sm2A (SEQ ID NO:2) and antp-Sm5A (SEQ ID NO:4) peptides at concentrations of 1 and 10 μM, as indicated (FIG. 4A).
# [4] = target: T2, constitutively active TβR-I (Homo sapiens, UniProt P36897, T204D); test: In vitro kinase assay with immunoprecipitated constitutively active TβR-I expressed in Mv1Lu cells; assay type: biochemical; conditions: immunoprecipitated from Mv1Lu cells, data not shown
# T2 construct: made in house; host or cells: Mv1Lu cells (expressed, immunoprecipitated)
# T2 sequence (P36897 34-503 T204D): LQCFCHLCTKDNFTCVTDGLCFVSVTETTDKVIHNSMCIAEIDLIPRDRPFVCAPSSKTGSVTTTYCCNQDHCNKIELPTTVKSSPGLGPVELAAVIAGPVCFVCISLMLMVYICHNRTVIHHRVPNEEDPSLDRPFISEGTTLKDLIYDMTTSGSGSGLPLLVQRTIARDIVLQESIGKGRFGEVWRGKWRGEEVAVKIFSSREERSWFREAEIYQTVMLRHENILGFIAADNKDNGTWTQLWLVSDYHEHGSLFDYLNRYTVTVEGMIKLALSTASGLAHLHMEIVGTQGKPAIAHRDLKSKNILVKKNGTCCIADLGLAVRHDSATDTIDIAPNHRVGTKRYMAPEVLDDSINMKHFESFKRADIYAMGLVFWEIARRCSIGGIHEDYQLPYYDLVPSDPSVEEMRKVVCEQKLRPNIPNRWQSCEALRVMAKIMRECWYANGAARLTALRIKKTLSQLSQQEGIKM
# Mv1Lu cells = test: Growth inhibition assay, [3H]thymidine incorporation; assay type: cell-based; conditions: peptide 50 μM, TGFβ1 0.1 ng/ml, 24 hours, FIG. 7
# Protocol: Growth inhibition assay: Growth inhibition assay with MV1Lu cells, using evaluation of [^3H]thymidine incorporation, was performed as described earlier. Briefly, cells were preincubated with peptides for 30 min, and then treated or not with TGFβ1 (0.1 ng/ml) for 24 h. During the last two hours of incubation, [^3H]thymidine was added. Radioactivity incorporated into DNA was measured in a scintillation counter. No cytotoxic effects of peptides were observed after 24 h incubation with cells, as evaluated by observation of cells in a microscope.
# To explore whether the antp-Sm2A (SEQ ID NO:2) peptide can interfere with the TGFβ-dependent effects on cells, we performed an assay with Mv1Lu cells, which are widely used in studies of TGFβ effects and are potently growth-inhibited by TGFβ [29]. […] [^3H]thymidine was added to cells for last two hours of incubation, and radioactivity incorporated into DNA was measured.
# [5] = in vitro kinase assay, 5 μM ATP, read-out: IC50 GST-TβRI in vitro
# Sequence of p38 MAP (Q16539 whole entry): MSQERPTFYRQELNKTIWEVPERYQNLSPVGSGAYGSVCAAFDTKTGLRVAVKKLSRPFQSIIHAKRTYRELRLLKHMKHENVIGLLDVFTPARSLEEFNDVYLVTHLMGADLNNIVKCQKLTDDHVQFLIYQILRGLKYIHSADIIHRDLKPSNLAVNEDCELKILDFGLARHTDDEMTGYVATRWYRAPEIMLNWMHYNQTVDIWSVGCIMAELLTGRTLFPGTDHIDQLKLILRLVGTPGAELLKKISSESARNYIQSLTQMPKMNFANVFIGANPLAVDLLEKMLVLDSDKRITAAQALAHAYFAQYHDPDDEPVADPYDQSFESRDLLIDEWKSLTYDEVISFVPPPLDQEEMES
compound,measurement,setting,value
COc1cccc(-c2cc(=O)c3ccccc3o2)c1N [PD98058],Effect on the kinase activity of GST-TβR-I (phosphorylation of GST-Smad3deltaMH1),"GST-TβR-I [1]; in vitro kinase assay, FIG. 2A",did not have an effect
CC1CNCCN1S(=O)(=O)c1cccc2cnccc12.Cl (stereo not shown) [H7],IC50,GST-TβR-I [1]; [5],200 µM
same,Effect on the kinase activity of GST-TβR-I (phosphorylation of GST-Smad3deltaMH1),"GST-TβR-I [1]; in vitro kinase assay, FIG. 2A",inhibited
same,Effect of low molecular weight inhibitors on TGFβ1-dependent phosphorylation of Smad2,[2],weaker than that of SB203580
Oc1ccc(-c2nc(-c3ccncc3)c(-c3ccc(F)cc3)[nH]2)cc1 [SB202190],IC50,GST-TβR-I [1]; read-out: IC50 for inhibition of GST-TβR-I,0.02 µM
C[S+]([O-])c1ccc(-c2nc(-c3ccc(F)cc3)c(-c3ccncc3)[nH]2)cc1 (stereo not shown) [SB203580],Effect of low molecular weight inhibitors on TGFβ1-dependent phosphorylation of Smad2,[2],significantly reduced
same,inhibition at 25 µM,"[2]; Mv1Lu, 0.5 h, read-out: Inhibition of TGFβ1-induced Smad2 phosphorylation",57%
CC[C@H](CO)Nc1nc(NCc2ccccc2)c2ncn(C(C)C)c2n1 [roscovitine],Effect on the kinase activity of GST-TβR-I (phosphorylation of GST-Smad3deltaMH1),GST-TβR-I [1],did not have an effect
Cc1nc(-c2ccncc2)c(-c2ccccc2)o1 [SC68376],IC50,GST-TβR-I [1]; [5],5 µM
same,IC50,p38 MAP,2 to 5 µM
CCc1[nH]c(-c2ccc(OC)cc2)nc1-c1ccncc1 [SB202474],IC50,GST-TβR-I [1]; [5],30 µM
"RQIKIWFQNRRMKWKKTQMGSPLNPISAVA (listed as Homo sapiens) [antp-Sm5A, penetratin fused to Smad5 C-terminus with serines replaced by alanine; specificity control, reference compound]",Effect of peptides on TGFβ1-dependent phosphorylation of endogenous Smad2,"[2]; Mv1Lu cells pretreated with peptide, 15 min TGFβ1, FIG. 6A",did not have any effect
same,Inhibition of autophosphorylation of GST-TβR-I,GST-TβR-I [3],No or only weak inhibition
same,Inhibition of autophosphorylation of TβR-I,[4],only a marginal effect
same,Reversion of the inhibitory action of TGFβ1 on DNA synthesis,Mv1Lu cells,did not have any effect
CN[C@@H]1C[C@H]2O[C@@](C)([C@@H]1OC)n1c3ccccc3c3c4c(c5c6ccccc6n2c5c31)C(=O)NC4 [staurosporine],Effect on the kinase activity of GST-TβR-I (phosphorylation of GST-Smad3deltaMH1),GST-TβR-I [1],did not have an effect
